What all share (format): cell-based, rat
In assay [1] the test system is GPx. Description: Glutathione peroxidase (GPx) activity assay in treated cells. The procedure:
(§1) FIG. 4. Effect of DBZIM and TDBZIM on GPx, CAT, SOD and GST. DBZIM affected (a) GPx activity and (c) CAT activity in a dosage-dependent manner. TDBZIM suppressed (b) GPx activity and (d) CAT activity. (e) DBZIM and (f) TDBZIM had little effect on SOD activity. (g) DBZIM induced GST activity. HSC T6 cells were treated with compounds of various concentrations for 48 h, and homogenized by sonication (60% frequency for 30 s) in PBS (pH 7.4, 1 mM of EDTA) for GPx, GST and CAT assays, or in 20 mM of HEPES buffer containing 1 mM of EGTA, 210 mM of mannitol and 70 mM of sucrose (pH 7.2) for SOD assay. Enzyme activity was normalized against total protein. DBZIM was dissolved in DMSO, and TDBZIM was dissolved in H2O. The data were presented as mean and SEM, N=6, *^aP<0.05, *^bP<0.01, *^cP<0.005, and *^dP<0.0005, when compared to the vehicle control.
(§2) Activity levels of three anti-oxidant enzymes, GPx, CAT and SOD, were determined using assay kits from Cayman Chemical. To assay GPx and CAT activities, protein samples were harvested in ice-cold PBS containing 1 mM of EDTA. To assay SOD activity, protein samples were prepared in 20 mM of N-(2-hydroxyethyl)-piperazine-N′-2-ethanesulfonic acid (HEPES) buffer containing 1 mM of ethylene glycol-bis(2-aminoethylether)-N,N,N′,N′-tetraacetic acid (EGTA), 210 mM of mannitol and 70 mM of sucrose. Protein content was determined by BCA assay.
GPx activity was indirectly measured by a coupled reaction with GSH reductase. Oxidized GSH, produced upon reduction of H2O2 by GPx, is recycled to its reduced state by glutathione reductase (GR) and nicotinamide adenine dinucleotide phosphate (NADPH). The oxidation of NAPDH is proportional to the GPx activity, and can be measured as a decrease in absorbance at 340 nm. GPx activity was expressed as nmol/min/mg protein.

Assay [2] relates to CAT. Description: Catalase (CAT) activity assay in treated cells. Particulars: for attenuation of CAT activity: 48 h. Here is the method: FIG. 4. […] Enzyme activity was normalized against total protein. DBZIM was dissolved in DMSO, and TDBZIM was dissolved in H2O. The data were presented as mean and SEM, N=6, *^aP<0.05, *^bP<0.01, *^cP<0.005, and *^dP<0.0005, when compared to the vehicle control.
Activity levels of three anti-oxidant enzymes, GPx, CAT and SOD, were determined using assay kits from Cayman Chemical. To assay GPx and CAT activities, protein samples were harvested in ice-cold PBS containing 1 mM of EDTA. […] Protein content was determined by BCA assay.
CAT activity was determined based on reaction of the enzyme with methanol in the presence of H2O2. The formaldehyde produced was measured spectrophotometrically at 540 nm using Purpald as the chromogen. CAT activity was expressed as nmol/min/mg protein.

The test system of assay [3] is SOD. Description: Superoxide dismutase (SOD) activity assay in treated cells. Particulars: HSC T6 cells, 48 h. The procedure: as §1, §2
Total SOD, including all three types of SOD (Cu/Zn-, Mn- and Fe-SOD), was quantified using a tetrazolium salt to detect superoxide radicals generated by xanthine oxidase and hyposanthine. […] SOD activity was expressed as U/mg protein.

Assay [4] relates to SMAA. Description: Real-time RT-PCR of SMAA mRNA in HSC T6 cells. Particulars: for change of SMAA mRNA: 8 h. The procedure:
(§3) FIG. 6. (a) DBZIM and (b) TDBZIM suppressed the mRNA expression of HSC activation markers (GFAP and SMAA) and fibrotic endpoints (col1a1 and fibronectin) in a dosage-dependent manner. […] The ΔΔCt method was used for relative quantification with vehicle control sample being the calibrator. The data were presented as mean and SEM, N=6, *^aP<0.05, *^bP<0.01, *^cP<0.005, and *^dP<0.0005, when compared to the vehicle control. FIG. 7. DBZIM (100 μM) and TDBZIM (100 μM) suppressed (a) GFAP, (b) SMAA, (c) col1a1 and (d) fibronectin mRNA expression in a time-dependent manner. HSC T6 cells were treated with DBZIM and TDBZIM, and assayed after 8, 24 and 48 h. […] FIG. 14. […] (50 μM), […] (50 μM), […] (10 μM) and DBZBIM (100 μM) were dissolved in DMSO with a final DMSO concentration of 0.2% (v/v). DPIM (2 mM), EGCG (25 μM) and DBZIM (100 μM) were dissolved in H2O. β-actin was used as the normalization gene; its expression was constant under the experimental conditions. Relative quantification was normalized against the respective vehicle control. The data were presented as mean and SEM, N=6, *^aP<0.05, *^cP<0.005, and *^dP<0.0005, when compared to the vehicle control. Total RNA was isolated using NucleoSpin RNAII isolation kit ([…], Germany), and quantified by ND-100 spectrophotometer (Nanodrop Technologies, DE, USA). The details of real-time RT-PCR were reported elsewhere (Zhang et al. 2006). Briefly, it was a two-step real-time RT-PCR using Taqman chemistry. Total RNA was first reverse transcribed to cDNA, and real-time PCR was run and detected in ABI 7500 Fast Real-Time PCR System (Applied Biosystems, CA, USA). Primers and probes for rat GFAP, SMAA, collagen Ia1, fibronectin, TGF-β1, TGF-β receptor I (TGFβ RI) and IL-6 were ordered from Taqman's assay-on-demand database. Rat β-actin was used as normalization gene, and its expression level was constant (CT difference was <±0.5) throughout the experimental settings in this study. Relative quantification of target mRNA was calculated using comparative threshold cycle method (ΔΔCT) as described in User Bulletin #2 (ABI Prism 7700 Sequence Detection System). Relative quantification was given by 2^-ΔΔCT to express the up-regulation or down regulation of the target gene under the treatments compared to the control.
Background: In qPCR the cycle at which signal appears reflects the starting amount.

The test system of assay [5] is col1a1. The assay is described as follows: Real-time RT-PCR of col1a1 mRNA in HSC T6 cells. Here is the method: as §3

`[Br-].c1ccc(Cn2cc[n+](Cc3ccccc3)c2)cc1` [DBZIM, 1,3-bisbenzylimidazolium bromide]: the “attenuation of GPx activity” value in assay [1] (10 μM, 48 h) was 10%; in assay [1] (50 μM, 48 h), 10%. Besides, the “enhancement of GPx activity” value in assay [1] (300 μM, 48 h) stood at 15%. For the same compound, the “attenuation of CAT activity” value in assay [2] (10 μM) is reported as 19%; in assay [2] (50 μM), 16%; in assay [2] (100 μM), 12%; in assay [2] (300 μM, without statistical significance) it was 8%. Moreover, the “effect on SOD activity” value in assay [3] is on record as “did not show much effect”. In assay [4] (100 μM), the “change of SMAA mRNA” value is “no change”. Besides, the “decrease of SMAA mRNA” value in assay [4] (100 μM, 48 h) came to 21%; in assay [4] (300 μM, 48 h) it was 58%. For the same compound, the “decrease of col1a1 mRNA” value in assay [5] (100 μM, 8 h) amounted to 22%; in assay [5] (100 μM, 24 h) it was 29%; in assay [5] (100 μM, 48 h), 21%; in assay [5] (300 μM, 48 h), 44%.
For the compound `CC(C)n1cc[n+](C(C)C)c1.F[B-](F)(F)F` [DPIM, 1,3-diisopropylimidazolium tetrafluoroborate], the “suppression of SMAA mRNA” value in assay [4] (48 h, DBIM 1 mM, DPIM 2 mM, AMIM 50 μM, TMPHIM 50 μM) is listed as 78%. Moreover, the “suppression of col1a1 mRNA” value in assay [5] (48 h, DBIM 1 mM, DPIM 2 mM, TMPHIM 50 μM, DPPHIM 10 μM) is given as 61%.
For “(−)-Epigallocatechin gallate [EGCG, reference compound]”, in assay [1] (EGCG 25 μM, NAC 5 mM), the “attenuation of GPx activity (references)” value amounted to 53%. The “suppression of CAT activity (references)” value in assay [2] (EGCG, NAC (FIG. 4c)) is 13%. Also, the “effect on SOD activity” value in assay [3] is listed as “did not show much effect”.
For the compound “1,3,5-tris(4-methyl-imidazolium)-linked cyclophane.3Br [TDBZIM]”, the “attenuation of GPx activity” value in assay [1] (10 μM, 48 h) was determined as 18%; in assay [1] (50 μM, 48 h) it was 25%; in assay [1] (100 μM, 48 h), 34%. Also, the “attenuation of CAT activity” value is listed as 25% in assay [2] (10 μM), 31% in assay [2] (50 μM) and 20% in assay [2] (100 μM). In assay [3], the “effect on SOD activity” value is “did not show much effect”. Besides, the “decrease of SMAA mRNA” value in assay [4] (1 μM, 48 h) amounted to 27%. Further, the “change of SMAA mRNA” value in assay [4] (100 μM) is “no change”. In addition, the “transient induction of SMAA mRNA” value in assay [4] (100 μM, 24 h) is listed as “up to 79%”. Further, the “decrease of col1a1 mRNA” value in assay [5] (1 μM, 48 h) turned out to be 39%; in assay [5] (10 μM, 48 h), 36%; in assay [5] (100 μM, 8 h) it was 22%; in assay [5] (100 μM, 24 h), 40%; in assay [5] (100 μM, 48 h) it was 53%.

These data come from patent publication US9072729B2, “Method for treating fibrosis and cancer with imidazolium and imidazolinium compounds” (Agency for Science, Technology and Research, priority 2008, dated 2015).
